What was measured:
[1] = target: signal transducer and activator of transcription factor 3 (STAT3), mitochondrial, endogenous in RBL cells (rat (RBL cells)) (UniProt P52631); assay: cell-based or functional assay
caspase3 = assay: Western blot of caspase3 / cleaved caspase3 (apoptosis) in RBL cells; format: cell-based, rat; conditions: activated RBL cells, 40 μM U0126
Method: RBL cells and mitochondrial pellets were lysed by the addition of lysis buffer (50 mM Tris-HCl pH 7.4, 1% Nonidet P-40, 0.25% Na-deoxycholate, 150 mM NaCl, 1 mM EDTA, 1 mM PMSF) supplemented with 15 μl protease inhibitor (Sigma-Aldrich). Cells and mitochondria were vortexed and incubated on ice for 15 min. The lysates were then centrifuged at 14,000 g for 15 min and pellets were discarded. The protein concentration of each sample was determined using Bradford Reagent (Sigma-Aldrich). Proteins were resolved by 10-15% SDS-PAGE under reducing conditions and transferred to polyvinylidene difluoride membranes (Millipore Billerica, Ma). The membranes were incubated in 5% fat-free milk and TBST (10 mM Tris-HCl, pH 7.4, 150 mM NaCl, 0.1% Tween 20) for 1 h and then in 5% BSA and TBST containing various dilutions of primary Abs for 18 h at 4° C. The membranes were washed three times with TBST for 5 mM before and after each incubation with secondary Ab. The proteins were detected with the appropriate secondary Ab (1 h; room temperature) coupled to HRP-conjugated goat anti-rabbit or anti-mouse Ab and visualized by chemiluminescence according to the manufacturer's instructions (Pierce).

RBL cells [2] = assay: ATP determination (ATPLite luminescence) in RBL cells; format: cell-based, rat
Method: (§1) RBL-2H3 cells were maintained in RPMI 1640 medium as previously described1. Bone marrow was isolated from 5-6 week-old mice, and BMMC were cultured in RPMI medium supplemented with 20 ng/ml interleukin-3 (IL-3) and 20 ng/ml SCF as previously described2, 3. Cells were generally grown for a minimum of 4 weeks and used when >90% of the population expressed FcεRI. BMMC and RBL cells were sensitized first with anti-DNP IgE monoclonal antibody (SPE-7; Sigma-Aldrich Corp.) and then challenged with DNP-BSA (Sigma-Aldrich Corp.). IgE antibody was centrifuged (18,000 g, 5 min) before use to remove aggregates. […] For glycolysis elimination cells were maintained in glucose-free RPMI supplemented with 10% dialyzed fetal calf serum and 5 mM galactose.
ATP levels were measured using the ATPLite luminescence-based assay according to the manufacturer's instructions (Perkin Elmer, Waltham, Mass., USA).

[3] = tested on: STAT3 serine 727 phosphorylation; assay: Western blot of STAT3 serine 727 phosphorylation in activated RBL cells; format: cell-based, rat
Method: RBL cells were washed once in cold PBS prior to homogenization. 9×10^6 cells were homogenized in buffer A (320 mm sucrose, 5 mm Tris, 2 mm EGTA, pH 7.4) with 10 strokes of a Teflon Dounce homogenizer. The procedure was performed at 4° C. The homogenate was centrifuged for 3 min at 2000 g and the supernatant kept. This was repeated twice, and the supernatants combined then centrifuged for 3 min at 2000 g. to remove the nuclei and cell debris. The supernatant was transferred to a clean tube and centrifuged for 10 min at 12,000 g to pellet mitochondria, washed twice resuspended in a small volume of buffer A and stored at −70° C. In order to prepare mitoplasts, the mitochondrial pellet was resuspended in buffer A with the addition of 0.02% (w/v) digitonin. The pellet was resuspended and washed twice in large volumes of digitonin-free buffer A. […] Cells and mitochondria were vortexed and incubated on ice for 15 min. The lysates were then centrifuged at 14,000 g for 15 min and pellets were discarded. The protein concentration of each sample was determined using Bradford Reagent (Sigma-Aldrich). Proteins were resolved by 10-15% SDS-PAGE under reducing conditions and transferred to polyvinylidene difluoride membranes (Millipore Billerica, Ma). […] The membranes were washed three times with TBST for 5 mM before and after each incubation with secondary Ab. The proteins were detected with the appropriate secondary Ab (1 h; room temperature) coupled to HRP-conjugated goat anti-rabbit or anti-mouse Ab and visualized by chemiluminescence according to the manufacturer's instructions (Pierce).

RBL cells [4] = assay: β-Hexosaminidase release assay (degranulation) in RBL cells; format: cell-based, rat
Method: as §1
1×104 RBL or 3×104 BMMC were immunologically activated as described above. After IgE incubation, the cells were washed three times with 5 mL of degranulation buffer (NaCl 130 mM, KCl 5 mM, Glucose 5.6 mM, MgCl2 1 mM, CaCl2 1.2 mM, Hepes pH 7.4 10 mM, BSA 0.1%) and resuspended in 200 μL of the same buffer with DNP-albumin for 30 min. The release of β-hexosaminidase was determined in triplicates in a 96-well plate. Aliquots (20 μL) of supernatants and cell lysates were incubated for 30 minutes with 100 μL of substrate solution (1.3 mg/mL p-nitrophenyl-b-D-2-acetamido-2-deoxyglucopyranozide in 0.1 M citrate [pH 4.51]). The reaction was stopped by the addition of 200 μL of 0.2 M glycine (pH 10.7). The plate OD was read in an enzyme-linked immunosorbent assay (ELISA) reader at a wavelength of 405 nm Percent release values for each experimental condition were calculated3.

RBL cells [5] = assay: Oxygen consumption (Seahorse XF analyzer) in RBL cells; format: cell-based, rat; conditions: for decrease in oxygen consumption: 40 μM U0126
Method: as §1
Oxygen consumption rate (OCR) was measured using an XF24 extracellular flux analyzer (Seahorse Biosciences, North Billeric, Mass., USA).

[6] = RBL cells transfected with PIAS3-mito vs empty plasmid

UniProt P52631, sequence (P52631 2-770 limits assumed): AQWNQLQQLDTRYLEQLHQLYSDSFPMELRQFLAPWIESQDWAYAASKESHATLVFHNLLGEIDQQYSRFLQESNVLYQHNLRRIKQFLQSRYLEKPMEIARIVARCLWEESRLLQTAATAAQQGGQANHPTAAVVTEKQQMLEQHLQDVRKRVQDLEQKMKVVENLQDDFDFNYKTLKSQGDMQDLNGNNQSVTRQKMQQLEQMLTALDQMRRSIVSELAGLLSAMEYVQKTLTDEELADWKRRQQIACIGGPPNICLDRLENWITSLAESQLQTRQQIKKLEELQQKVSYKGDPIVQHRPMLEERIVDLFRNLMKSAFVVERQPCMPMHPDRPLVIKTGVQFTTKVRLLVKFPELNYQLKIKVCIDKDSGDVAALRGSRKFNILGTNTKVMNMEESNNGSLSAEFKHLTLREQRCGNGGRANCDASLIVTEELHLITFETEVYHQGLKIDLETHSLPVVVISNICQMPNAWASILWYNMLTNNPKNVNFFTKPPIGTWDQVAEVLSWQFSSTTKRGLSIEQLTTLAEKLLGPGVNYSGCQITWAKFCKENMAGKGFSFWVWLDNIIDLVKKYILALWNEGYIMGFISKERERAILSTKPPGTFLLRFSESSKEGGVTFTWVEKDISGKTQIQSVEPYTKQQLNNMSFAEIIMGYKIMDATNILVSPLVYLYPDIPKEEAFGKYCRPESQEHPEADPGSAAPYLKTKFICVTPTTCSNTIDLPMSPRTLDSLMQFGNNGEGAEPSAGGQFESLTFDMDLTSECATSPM

## PIAS3 fused to a mitochondrial target sequence (PIAS3-mito) (from UniProt O54714 13-628)
[1]
  ATP levels of activated cells compared to control (empty plasmid): 15.9 % decrease
  degranulation (β-hexosaminidase release): 67.5%

## N#CC(=C(/N)Sc1ccccc1N)/C(C#N)=C(\N)Sc1ccccc1N [Mitocur U0126, reference compound]
caspase3
  caspase3 levels (apoptosis): no change
RBL cells [2]; immunologically activated RBL cells, 20 min pre-treatment with 40 μM U0126
  decrease in ATP levels: 3.0±0.4%
[3]; RBL cells, 40 μM U0126, activated 5 min
  STAT3 727 serine phosphorylation, total cell level: significant decrease
[3]; activated RBL cells fractionated into cytosol and mitochondria, 40 μM U0126
  STAT3 727 serine phosphorylation, mitochondrial level: decrease
RBL cells [4]; IgE-Ag stimulated RBL cells, 40 μM U0126, 20 min
  reduction in degranulation as compared to control: 33.0±0.6%
RBL cells [4]; RBL cells, U0126 above 40 μM (FIG. 12)
  degranulation levels at higher concentrations: more profound reduction
RBL cells [5]; activated RBL cells
  decrease in oxygen consumption: 15.8±4.9%
RBL cells [5]; quiescent RBL cells
  decrease in oxygen consumption: 9.4±2.4%

## COc1ccc(S(=O)(=O)Nc2cc(-c3c(O)ccc4ccccc34)c(O)c3ccccc23)cc1 [Mitocur C188-9, N-(1′,2-Dihydroxy-1,2′-binaphthalen-4′-yl)-4-methoxybenzenesulfonamide]
RBL cells [4]; immunologically activated RBL cells, 250 μM C188-9, 10 min
  degranulation: abolished

B1: PIAS3-mito: PIAS3 fused to a mitochondrial target sequence, expressed from a transfected plasmid (SEQ ID NO. 16) (protein)
chain: MSVLTPLLLRGLTGSARRLPVPRAKIHSLLQVDSFRVSELQVLLGFAGRNKSGRKHELLAKALHLLKSSCAPSVQMKIKELYRRRFPRKTLGPSDLSLLSLPPGTSPPVHPDVTMKPLPFYEVYGELIRPTTLASTSSQRFEEAHFTFALTPQQLQQILTSREVLPGAKCDYTIQVQLRFCLCETSCPQEDYFPPNLFVKVNGKLCPLPGYLPPTKNGAEPKRPSRPINITPLARLSATVPNTIVVNWSSEFGRNYSLSVYLVRQLTAGTLLQKLRAKGIRNPDHSRALIKEKLTADPDSEVATTSLRVSLMCPLGKMRLTVPCRALTCAHLQSFDAALYLQMNEKKPTWTCPVCDKKAPYESLIIDGLFMEILNSCSDCDEIQFMEDGSWCPMKPKKEASEVCPPPGYGLDGLQYSAVQEGIQPESKKRVEVIDLTIESSSDEEDLPPTKKHCPVTSAAIPALPGSKGALTSGHQPSSVLRSPAMGTLGSDFLSSLPLHEYPPAFPLGADIQGLDLFSFLQTESQHYGPSVITSLDEQDTLGHFFQYRGTPSHFLGPLAPTLGSSHRSSTPAPPPGRVSSIVAPGSSLREGHGGPLPSGPSLTGCRSDVISLD
RBL cells [2]; RBL cells transfected with PIAS3-mito vs empty plasmid, activated 5 min
  decrease in ATP levels of activated cells compared to control: 15.9±1.6%
RBL cells [4]; [6]
  decrease in degranulation: 67.5±15.0%
RBL cells [5]; [6]
  oxygen consumption in activated cells compared to activated control cells: did not change

— patent US20160113900A1, “INHIBITORS OF MITOCHONDRIAL STAT3 AND USES THEREOF IN MODULATION OF MAST CELL EXOCYTOSIS” (Yissum Research Development Company of the Hebrew …, priority 2014, published 2016)
